According to publication PMC3716696 (PLoS ONE, 2013):
“Also recorded” adds a separate entry of the source. Blank lines part the entries; values can stand above or below the molecule they belong to. Non-standard residues stand in square brackets, D forms with d. Residues, ends and D or L forms follow the SMILES beside them. *: point of attachment. Sta = CC(C)C[C@H](N)[C@@H](O)CC(=O)O; Isovaleryl = CC(C)CC(=O)*

Columns and labels:
[1] = N-terminal SP fragment formation in spinal cord soluble and membrane lysates; assay type: in vitro ADME, mouse; details: for Degradation product of SP1–9 in spinal cord lysates: SP1–9 100 μM incubated in spinal cord lysate, 37°C, 1 h, LC-MS (Fig. S3)
Protocol: Three mouse spinal cords were dounce homogenized in 1.1 mL phosphate buffered saline (PBS) on ice and then sonicated for 15 s at 4°C. Tissue debris was separated by centrifuging the sample at 5,000×g for 20 min at 4°C. The soluble fraction was collected after ultracentrifugation of the sample at 55,000×g for 1 h at 4°C. The membrane pellet that remained was washed 3x with 600 μL PBS. The pellet was then suspended in 100 μL PBS by sonication for 5 s at 4°C. The sample was ultracentrifugation at 55,000×g for 1 h at 4°C and the supernatant was separated as a wash membrane sample. The pellet was suspended in 100 μL of 1 mM sodium deoxycholate (Alfa Aesar) by sonication for 5 s at 4°C then stirred for 30 min at 4°C. Ultracentrifugation of the sample at 55,000×g for 1 h at 4°C separated the supernatant as a 1 mM deoxycholate-solubilized membrane fraction. The remaining pellet was washed 3x with 600 μL 1 mM deoxycholate solution. The pellet was subsequently suspended in 4, 12, and 24 mM deoxycholate following the same cycle. The final pellet was suspended in 100 μL PBS. The protein content in the soluble and membrane lysates was quantified by the Bradford assay. […] The reactions were quenched with neat formic acid and speed vac dried. The samples were dissolved in 0.1% formic acid (aq) and analyzed by MALDI-TOF MS for SP-degrading activity (i.e. formation of SP1–7 and SP1–9) using the method outlined in “MALDI-TOF MS and LC-MS/MS analysis of in vitro peptides” section. […]
MALDI-TOF MS was performed with α-cyano-4-hydroxycinnamic acid as the matrix using 2 μL of a 50 μM reconstituted degradation reaction solution (based on initial SP quantities). […]
To determine the candidate proteolytic pathway or pathways for SP degradation in the spinal cord, we separated tissue lysates from mouse spinal cords into membrane and soluble fractions, incubated them with full-length SP for varying lengths of time (15, 60, 240 min) and then analyzed the quenched reactions by MALDI mass spectrometry to identify any SP fragments that had been produced. […]

[2] = tested on: SP-degrading activity of spinal cord membrane lysates; assay: SP degradation in spinal cord membrane lysates with general enzyme class inhibitors; assay type: biochemical, mouse; details: membrane lysate 1 mg/mL, 30 min pre-incubation 37°C, SP 100 μM, 1 h 37°C; 1 mM o-phenanthroline, 10 μM pepstatin A, 1 mM PMSF; LC-MS, N = 4
Protocol: The membrane fraction of spinal cord lysates (1 mg/mL) were pre-incubated at 37°C for 30 minutes separately with each of the following inhibitors (N = 4): 10 μM E-64 (cysteine protease), 1 mM iodoacetamide (cysteine protease), 1 mM o-phenanthroline (metalloprotease), 10 μM pepstatin A (aspartyl protease), 1 mM phenylmethylsulfonyl fluoride (PMSF, serine protease), 1 mM diisopropylfluorophosphate (serine protease), and vehicle (PBS with DMSO for 5% DMSO final concentration in reaction). After the pre-incubation with each inhibitor, SP was added to 100 μM final concentration. The reactions proceeded at 37°C for 1 h. Dried samples were dissolved in 0.1% formic acid (aq) and analyzed by LC-MS/MS for SP-degrading activity (i.e. formation of SP1–7 and SP1–9) using the method outlined in “MALDI-TOF MS and LC-MS/MS analysis of in vitro peptides” section.
(§1) For LC-MS analysis, an Agilent 6220 LC-ESI-TOF instrument was used in the positive mode. A Bio-Bond C18 (5 μm, 150×2.1 mm) column was used together with a precolumn (C18, 3.5 μm, 2×20 mm). Following injection of 25 μL of 5 μM solutions, the samples were trapped at an isocratic flow rate of 0.1 ml/min for five minutes and eluted at a flow rate of 0.25 mL/min via a mobile phase gradient of 2–100% B in 40 min (Mobile Phase A: 0.1% formic acid in water, Mobile Phase B: 0.1% formic acid in acetonitrile). MS analysis was performed with an electrospray ionization (ESI) source. The capillary voltage was set at 4.0 kV and the fragmentor voltage to 100 V. The drying gas temperature was 350°C, the drying gas flow rate was 10 L/min, and the nebulizer pressure was 45 psi. Data was collected in the centroid mode using a mass range of 100–500 Da. The peptides were analyzed by mass extraction of the +3 charge state.

[3] = tested on: NEP; assay: SP degradation and SP levels in WT and Nep–/– spinal cord; assay type: in vitro ADME, mouse; details: 1 mg/mL WT and Nep–/– spinal cord membrane lysates, LC-MS/MS
Protocol: The levels of SP in WT and Nep^–/– mice spinal cord tissue (N = 4) were compared by IDMS using Top 6 MS/MS as described previously. The degradation of SP was compared in 1 mg/mL WT and Nep^–/– mice spinal cord membrane lysates using LC-MS/MS analysis following the above method.

[4] = tested on: Pitrilysin; details: cited from earlier work
[5] = membrane fraction of spinal cord lysates (1 mg/mL) with metalloprotease inhibitors; details: mouse, 37°C, up to 1 h
[6] = membrane fraction of mouse spinal cord lysates (1 mg/mL); details: mouse (C57BL/6), 37°C, up to 240 min
[7] = tested on: ACE; details: cited from earlier work
[8] = cell lysates with synthetic peptide; synthetic peptide introduced into a living tissue (pseudo-in vivo); details: cited from earlier work
[9] = tested on: MMP9; details: cited from earlier work
[10] = membrane fraction of spinal cord lysates (1 mg/mL) with class-selective inhibitors; details: mouse, 37°C, up to 1 h
[11] = soluble fraction of mouse spinal cord lysates (1 mg/mL); details: mouse (C57BL/6), 37°C, up to 240 min
[12] = tested on: Meprin 1A; details: cited from earlier work
[13] = tested on: NEP; details: cited from earlier work
[14] = mouse spinal cord tissue (endogenous peptides, boiled and extracted); details: mouse (C57BL/6)
[15] = tested on: ECE-1; details: cited from earlier work
[16] = tested on: ECE-2; details: cited from earlier work
[17] = membrane fraction of spinal cord lysates (1 mg/mL); details: mouse (C57BL/6), 37°C, up to 1 h
[18] = tested on: SP-degrading / SP1–9-producing activity of spinal cord membrane lysates; assay: SP degradation in spinal cord membrane lysates with metalloprotease inhibitors; assay type: biochemical, mouse; details: membrane lysate 1 mg/mL, 30 min pre-incubation 37°C, SP 100 μM, 1 h 37°C, LC-MS, N = 4; for Inhibition of SP degradation (in words): inhibitor 100 μM (TIMP2 4 μM)
Protocol: All inhibitors were present at 100 μM except for TIMP2, which was present at 4 μM. After the pre-incubation with each inhibitor, either SP or SP1–9 was added to 100 μM final concentration. The reactions proceeded at 37°C for 1 h. Dried samples were dissolved in 0.1% formic acid (aq) and analyzed by LC-MS/MS for SP or SP1–9-degrading activity.
as §1

[19] = in vivo; cited from earlier work

Molecule: H2N-RPKPQQFFGLM-CONH2
cleaved bond [4]: G9-L10
cleaved bond [5]: G9-L10, major
cleaved bond [6]: G9-L10, major
fragment found [6]: SP1–10; also recorded: SP1–8; also recorded: SP1–7; also recorded: SP3-11
cleaved bond [7]: G9-L10
fragment found [8]: SP1–9; also recorded: SP1–8; also recorded: SP1–7; also recorded: SP5–11; also recorded: SP6–11; also recorded: SP7–11; also recorded: SP8–11
cleaved bond [9]: G9-L10
cleaved bond [10]: G9-L10, major
fragment found [10]: SP1–7
not cleaved [11]: No discernable fragments appeared in the soluble fraction
cleaved bond [12]: G9-L10
cleaved bond [13]: G9-L10
cleaved bond [14]: G9-L10, major
fragment found [14]: SP1–7, major
cleaved bond [15]: G9-L10
cleaved bond [16]: G9-L10

Molecule: CC(C)C[C@H](NP(=O)(O)O[C@@H]1O[C@@H](C)[C@H](O)[C@@H](O)[C@H]1O)C(=O)N[C@@H](Cc1c[nH]c2ccccc12)C(=O)O [phosphoramidon]
Inhibition of SP degradation (in words) [18]: could inhibit
Inhibition of SP1–9 production (in words) ([18]; inhibitor 100 μM): could inhibit
Inhibition of SP1–9 production (in words) ([18]; inhibitor 100 μM, listed as Phosphoramidon): slows SP1–9 production

Molecule: O=S(=O)(F)Cc1ccccc1 [PMSF, phenylmethylsulfonyl fluoride]
Effect on SP1–7 production [2]: regulate SP1-7 production
Inhibition of SP1–9 production [2]: small effect
Inhibition of SP degradation (SP levels vs vehicle) [2]: Modest increases

Molecule: CNC(=O)[C@H](Cc1c[nH]c2ccccc12)NC(=O)[C@@H](CC(=O)NO)CC(C)C [GM6001]
Inhibition of SP degradation (in words) [18]: most effective compound at preventing SP degradation; also recorded: least amount of SP degradation
Decrease in SP1–9 production compared to vehicle ([18]; inhibitor 100 μM): greater than 10 fold
Increase in SP levels compared to vehicle ([18]; inhibitor 100 μM): ~2 fold
Inhibition of SP1–9 production (in words) ([18]; inhibitor 100 μM): best inhibitor of SP1–9 production; also recorded: strongly inhibited; also recorded: potently blocks
Bioavailability [19]: bioavailable

Molecule: CCCCC[C@H](CC(=O)NO)C(=O)N[C@H](C(=O)N1CCC[C@H]1CO)C(C)C [actinonin]
Inhibition of SP degradation (in words) [18]: could inhibit
Inhibition of SP1–9 production (in words) ([18]; inhibitor 100 μM): could inhibit

Second part, led by results:

Degradation product of SP1–9 in spinal cord lysates [1]: SP1–7 was produced
Degradation product of SP1–9 in spinal cord lysates ([1]; listed as SP 1–9): SP1–7 is produced
Molecule: N=C(N)NCCC[C@H](N)C(=O)N1CCC[C@H]1C(=O)N[C@@H](CCCCN)C(=O)N1CCC[C@H]1C(=O)N[C@@H](CCC(N)=O)C(=O)N[C@@H](CCC(N)=O)C(=O)N[C@@H](Cc1ccccc1)C(=O)N[C@@H](Cc1ccccc1)C(=O)NCC(=O)O [SP1–9] (H-RPKPQQFFG-OH)

Effect on SP1–7 production [2]: regulate SP1-7 production
Inhibition of SP1–9 production [2]: small effect
Inhibition of SP degradation (SP levels vs vehicle) [2]: Modest increases
Molecule: CC(C)CC(=O)N[C@H](C(=O)N[C@H](C(=O)N[C@@H](CC(C)C)[C@@H](O)CC(=O)N[C@@H](C)C(=O)N[C@@H](CC(C)C)[C@@H](O)CC(=O)O)C(C)C)C(C)C [pepstatin A] (Isovaleryl-VV[Sta]A[Sta]-OH)

SP fragments formed in soluble fraction of spinal cord lysate ([1]; pH 7.34): No discernable fragments
SP degradation in NEP+/+ vs NEP–/– spinal cord lysates [3]: no significant difference
Molecule: CSCC[C@H](NC(=O)[C@H](CC(C)C)NC(=O)CNC(=O)[C@H](Cc1ccccc1)NC(=O)[C@H](Cc1ccccc1)NC(=O)[C@H](CCC(N)=O)NC(=O)[C@H](CCC(N)=O)NC(=O)[C@@H]1CCCN1C(=O)[C@H](CCCCN)NC(=O)[C@@H]1CCCN1C(=O)[C@@H](N)CCCN=C(N)N)C(N)=O [SP, Substance P]

fragment found [17]: SP1–7
Molecule: H-RPKPQQFFG-OH

Effect on SP1–7 production [2]: regulate SP1-7 production
Molecule: c1cnc2c(c1)ccc1cccnc12 [O-phenanthroline]
Inhibition of SP1–9 production [2]: most potent inhibitor of SP1–9 production; also recorded: strongest inhibitor of SP1–9 production
Inhibition of SP degradation (SP levels vs vehicle) [2]: most effective compound at inhibiting SP degradation; also recorded: twice as high as the vehicle control
